Organism: Rattus norvegicus
Assay: DrugMatrix - Regimen: Daily Repeat
Type: toxicity, organism-based, Sprague-Dawley
Design: regimen Daily Repeat, gender Male, age 6-8 weeks
Conditions: in vivo, po, route oral GAVAGE, […]; for URIC ACID / ALANINE AMINOTRANSFERASE / ALBUMIN / ALKALINE PHOSPHATASE / ASPARTATE AMINOTRANSFERASE / BLOOD UREA NITROGEN / CARBON DIOXIDE / CHLORIDE / CHOLESTEROL / CREATINE PHOSPHOKINASE / CREATININE / GLUCOSE / LACTATE DEHYDROGENASE / LIPASE / PHOSPHORUS / POTASSIUM / SODIUM / TOTAL BILIRUBIN / TOTAL PROTEIN: tissue Plasma; for ABSOLUTE BASOPHIL / ABSOLUTE EOSINOPHIL / ABSOLUTE LYMPHOCYTE / ABSOLUTE MONOCYTE / ABSOLUTE SEGMENTED NEUTROPHIL / BASOPHIL / EOSINOPHIL / ERYTHROCYTE COUNT / HEMATOCRIT / HEMOGLOBIN / LEUKOCYTE COUNT / LYMPHOCYTE / MEAN CORPUSCULAR HEMOGLOBIN / MEAN CORPUSCULAR HEMOGLOBIN CONCENTRATION / MONOCYTE / NEUTROPHIL / NUCLEATED RED BLOOD CELLS / PLATELET COUNT: tissue Blood
[1] = 0.2 mg/kg, 120 h, dose level Low, time 5 day
[2] = 19 mg/kg, 72 h, dose level High, time 3 day
[3] = 19 mg/kg, 120 h, dose level High, time 5 day

CCOC(=O)C1=C(COCCN)NC(C)=C(C(=O)OC)C1c1ccccc1Cl (stereo unspecified) [AMLODIPINE]
URIC ACID (0.2 mg/kg, 72 h, dose level Low, time 3 day): 1.4 mg/dL | ABSOLUTE BASOPHIL [1]: 0 CELLS/uL | ABSOLUTE EOSINOPHIL [1]: 54 CELLS/uL | ABSOLUTE LYMPHOCYTE [1]: 12693.33 CELLS/uL | ABSOLUTE MONOCYTE [1]: 54 CELLS/uL | ABSOLUTE SEGMENTED NEUTROPHIL [1]: 1132 CELLS/uL | BASOPHIL [1]: 0% | EOSINOPHIL [1]: 0.33% | ERYTHROCYTE COUNT [1]: 5.55 x10E6/uL | HEMATOCRIT [1]: 34.53% | HEMOGLOBIN [1]: 13.3 G/DL | LEUKOCYTE COUNT [1]: 13.93 x10E3/uL | LYMPHOCYTE [1]: 91.33% | MEAN CORPUSCULAR HEMOGLOBIN [1]: 23.97 pg | MEAN CORPUSCULAR HEMOGLOBIN CONCENTRATION [1]: 38.5 G/DL | MONOCYTE [1]: 0.33% | NEUTROPHIL [1]: 8% | NUCLEATED RED BLOOD CELLS [1]: 0.33 /100WBC | PLATELET COUNT [1]: 1051.33 x10E3/uL | ALANINE AMINOTRANSFERASE [1]: 66 u/L | ALBUMIN [1]: 4.1 G/DL | ALKALINE PHOSPHATASE [1]: 350 u/L | ASPARTATE AMINOTRANSFERASE [1]: 82 u/L | BLOOD UREA NITROGEN [1]: 16 mg/dL | CARBON DIOXIDE [1]: 30.33 mmol/L | CHLORIDE [1]: 99.33 MEQ/L | CHOLESTEROL [1]: 64.33 mg/dL | CREATINE PHOSPHOKINASE [1]: 209.67 u/L | CREATININE [1]: 0.14 mg/dL | GLUCOSE [1]: 156.33 mg/dL | LACTATE DEHYDROGENASE [1]: 144.67 u/L | LIPASE [1]: 19.33 u/L | PHOSPHORUS [1]: 10.4 mg/dL | POTASSIUM [1]: 5.81 MEQ/L | SODIUM [1]: 144.97 MEQ/L | TOTAL BILIRUBIN [1]: 0.1 mg/dL | TOTAL PROTEIN [1]: 5.67 G/DL | URIC ACID [1]: 0.87 mg/dL | ABSOLUTE BASOPHIL [2]: 0 CELLS/uL | ABSOLUTE EOSINOPHIL [2]: 0 CELLS/uL | ABSOLUTE LYMPHOCYTE [2]: 15467 CELLS/uL | ABSOLUTE MONOCYTE [2]: 0 CELLS/uL | ABSOLUTE SEGMENTED NEUTROPHIL [2]: 1533 CELLS/uL | BASOPHIL [2]: 0% | EOSINOPHIL [2]: 0% | ERYTHROCYTE COUNT [2]: 5.69 x10E6/uL | HEMATOCRIT [2]: 35.43% | HEMOGLOBIN [2]: 13.97 G/DL | LEUKOCYTE COUNT [2]: 17 x10E3/uL | LYMPHOCYTE [2]: 90.67% | MEAN CORPUSCULAR HEMOGLOBIN [2]: 24.53 pg | MEAN CORPUSCULAR HEMOGLOBIN CONCENTRATION [2]: 39.4 G/DL | MONOCYTE [2]: 0% | NEUTROPHIL [2]: 9.33% | NUCLEATED RED BLOOD CELLS [2]: 0 /100WBC | PLATELET COUNT [2]: 1141 x10E3/uL | ALANINE AMINOTRANSFERASE [2]: 69.67 u/L | ALBUMIN [2]: 3.77 G/DL | ALKALINE PHOSPHATASE [2]: 410 u/L | ASPARTATE AMINOTRANSFERASE [2]: 81.67 u/L | BLOOD UREA NITROGEN [2]: 14 mg/dL | CARBON DIOXIDE [2]: 29.67 mmol/L | CHLORIDE [2]: 101.67 MEQ/L | CHOLESTEROL [2]: 68 mg/dL | CREATINE PHOSPHOKINASE [2]: 240.33 u/L | CREATININE [2]: 0.16 mg/dL | GLUCOSE [2]: 161 mg/dL | LACTATE DEHYDROGENASE [2]: 103.33 u/L | LIPASE [2]: 10 u/L | PHOSPHORUS [2]: 10.33 mg/dL | SODIUM [2]: 141.27 MEQ/L | TOTAL BILIRUBIN [2]: 0.23 mg/dL | TOTAL PROTEIN [2]: 5.6 G/DL | URIC ACID [2]: 1.43 mg/dL | ABSOLUTE BASOPHIL [3]: 0 CELLS/uL | ABSOLUTE EOSINOPHIL [3]: 0 CELLS/uL | ABSOLUTE LYMPHOCYTE [3]: 11777 CELLS/uL | ABSOLUTE MONOCYTE [3]: 51 CELLS/uL | ABSOLUTE SEGMENTED NEUTROPHIL [3]: 838.67 CELLS/uL | BASOPHIL [3]: 0% | EOSINOPHIL [3]: 0% | ERYTHROCYTE COUNT [3]: 5.63 x10E6/uL | HEMATOCRIT [3]: 34.73% | HEMOGLOBIN [3]: 13.7 G/DL | LEUKOCYTE COUNT [3]: 12.67 x10E3/uL | LYMPHOCYTE [3]: 92.67% | MEAN CORPUSCULAR HEMOGLOBIN [3]: 24.33 pg | MEAN CORPUSCULAR HEMOGLOBIN CONCENTRATION [3]: 39.47 G/DL | MONOCYTE [3]: 0.33% | NEUTROPHIL [3]: 7% | NUCLEATED RED BLOOD CELLS [3]: 0 /100WBC | PLATELET COUNT [3]: 1057.67 x10E3/uL | ALANINE AMINOTRANSFERASE [3]: 95 u/L | ALBUMIN [3]: 4 G/DL | ALKALINE PHOSPHATASE [3]: 359.33 u/L | ASPARTATE AMINOTRANSFERASE [3]: 100 u/L | BLOOD UREA NITROGEN [3]: 16 mg/dL | CARBON DIOXIDE [3]: 34.67 mmol/L | CHLORIDE [3]: 101.5 MEQ/L | CHOLESTEROL [3]: 68.33 mg/dL | CREATINE PHOSPHOKINASE [3]: 177.67 u/L | CREATININE [3]: 0.13 mg/dL | GLUCOSE [3]: 165 mg/dL | LACTATE DEHYDROGENASE [3]: 96.67 u/L | LIPASE [3]: 12 u/L | PHOSPHORUS [3]: 8.93 mg/dL | POTASSIUM [3]: 5.34 MEQ/L | SODIUM [3]: 145.05 MEQ/L | TOTAL BILIRUBIN [3]: 0.1 mg/dL | TOTAL PROTEIN [3]: 5.9 G/DL | URIC ACID [3]: 0.37 mg/dL

Reference: ChEMBL document CHEMBL3885881, “DrugMatrix”
